In ChEMBL document CHEMBL5442219:

Key:
[1] = target: 5-hydroxytryptamine receptor 5A (Homo sapiens) (UniProt P47898); conditions: Compound concentration 10 µM
Description: PDSP Primary Binding target: HTR5A - Compounds are tested at 10 uM concentration, plate are incubated at room temperature in the dark for 90 minutes. Reaction are stopped by vacuum filtration onto 0.3% polyethyleneimine soaked filter mats using Filtermate harvester. Scintilation cocktail is then melted onto microwave-dried filters on a hot plate and the radio activity is counted in Microbia counter.

[2] = target: Mu-type opioid receptor (Homo sapiens) (UniProt P35372); conditions: Compound concentration 10 µM
Mu-type opioid receptor (Homo sapiens), sequence (P35372 whole entry): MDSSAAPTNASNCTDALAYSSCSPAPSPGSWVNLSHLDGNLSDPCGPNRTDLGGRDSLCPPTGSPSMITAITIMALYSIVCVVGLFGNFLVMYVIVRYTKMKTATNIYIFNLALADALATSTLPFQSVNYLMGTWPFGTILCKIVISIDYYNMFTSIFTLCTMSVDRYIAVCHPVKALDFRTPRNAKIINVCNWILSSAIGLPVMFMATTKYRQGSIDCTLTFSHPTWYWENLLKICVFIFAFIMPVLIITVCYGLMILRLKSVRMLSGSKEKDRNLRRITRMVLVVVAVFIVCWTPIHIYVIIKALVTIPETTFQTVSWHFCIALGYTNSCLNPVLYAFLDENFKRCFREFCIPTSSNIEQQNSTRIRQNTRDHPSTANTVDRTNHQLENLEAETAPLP
Description: PDSP Primary Binding target: OPRM1 - Compounds are tested at 10 uM concentration, plate are incubated at room temperature in the dark for 90 minutes. Reaction are stopped by vacuum filtration onto 0.3% polyethyleneimine soaked filter mats using Filtermate harvester. Scintilation cocktail is then melted onto microwave-dried filters on a hot plate and the radio activity is counted in Microbia counter.

5-hydroxytryptamine receptor 5A (Homo sapiens), sequence (P47898 whole entry): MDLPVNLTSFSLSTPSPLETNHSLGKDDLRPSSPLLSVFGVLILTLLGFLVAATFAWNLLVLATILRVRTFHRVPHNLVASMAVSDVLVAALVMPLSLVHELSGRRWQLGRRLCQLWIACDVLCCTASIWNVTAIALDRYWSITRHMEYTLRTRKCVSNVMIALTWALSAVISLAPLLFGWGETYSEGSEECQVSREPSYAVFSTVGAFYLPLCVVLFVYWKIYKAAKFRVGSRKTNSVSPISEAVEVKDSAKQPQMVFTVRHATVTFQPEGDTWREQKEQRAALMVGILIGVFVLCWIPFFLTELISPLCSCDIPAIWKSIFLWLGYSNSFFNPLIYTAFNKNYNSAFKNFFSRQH

SMILES: CC(C)NCC(O)COc1ccc(CCOCC2CC2)cc1 (stereo unspecified)
- inhibition [1]: -3.84%
- inhibition [2]: 3.09%

SMILES: CN(C(=O)Cc1ccc(Cl)c(Cl)c1)C(CN1CCCC1)c1cccc(OCC(=O)O)c1 (stereo unspecified)
- inhibition [1]: 1.89%
- inhibition [2]: 87.5%

SMILES: CCCCN(CCCC)C(=O)CN1C[C@@H](c2ccc3c(c2)OCO3)[C@H](C(=O)O)[C@H]1c1ccc(OC)cc1
- inhibition [2]: 0.92%

SMILES: COc1cccc([C@H](O)C2CCN(CCc3ccc(F)cc3)CC2)c1OC
- inhibition [1]: 16.8%
- inhibition [2]: 8.06%

SMILES: C/C(=N\NC(=O)[C@@H]1C(=O)NC[C@H]1c1ccccc1)c1cccc(Br)c1
- inhibition [1]: 18.8%
- inhibition [2]: 50.1%

SMILES: CNC[C@H](O)c1cccc(O)c1
- inhibition [1]: 26.3%
- inhibition [2]: 2.89%

SMILES: COC(=O)C1=C(C)NC(C)=C(C(=O)OCCCN2CCC(c3ccccc3)(c3ccccc3)CC2)[C@H]1c1cccc([N+](=O)[O-])c1
- inhibition [1]: 68.7%
- inhibition [2]: 92%

SMILES: Clc1cccc(COc2cncc(N3CCNCC3)n2)c1
- inhibition [1]: 13.2%
- inhibition [2]: 0.78%

SMILES: O=C(O)CC/C=C\C[C@@H]1CO[C@H](c2ccccc2Cl)O[C@@H]1c1ccccc1O
- inhibition [2]: 8.82%

SMILES: C[C@@H](NCCCc1cccc(C(F)(F)F)c1)c1cccc2ccccc12
- inhibition [1]: 81.9%
- inhibition [2]: 78.3%

SMILES: O=S1(=O)c2cccc3cccc(c23)N1CCCN1CCN(c2ccc(F)cc2)CC1
- inhibition [1]: 58.9%
- inhibition [2]: 43%

SMILES: COc1cccc([C@@H](C)NCCCc2ccccc2Cl)c1
- inhibition [1]: 61.2%
- inhibition [2]: 57.2%

SMILES: CCCCCCCCCCCCCCCCOC[C@H](COP(=O)([O-])OCC[N+](C)(C)C)OC(C)=O
- inhibition [1]: 17.5%
- inhibition [2]: 35.1%

SMILES: N#Cc1ccc2[nH]cc(CCCCN3CCN(c4ccc5oc(C(N)=O)cc5c4)CC3)c2c1
- inhibition [1]: 40.6%
- inhibition [2]: 62.7%

SMILES: S=C(NCCCc1c[nH]cn1)NCCCN(Cc1ccc(Cl)c(Cl)c1)c1ccc(Br)cn1
- inhibition [1]: 96.7%
- inhibition [2]: 28.7%

SMILES: COc1ccc(C2(O)OC(=O)C(c3ccc4c(c3)OCO4)=C2Cc2cc(OC)c(OC)c(OC)c2)cc1 (stereo unspecified)
- inhibition [1]: 4.51%
- inhibition [2]: -4.54%

SMILES: CN1CC(=O)N=C1NC(=O)Nc1cccc(Cl)c1
- inhibition [1]: 18.4%
- inhibition [2]: 5.37%

SMILES: CN(C)C(=O)C(CCN1CCC(O)(c2ccc(Cl)cc2)CC1)(c1ccccc1)c1ccccc1
- inhibition [1]: 23.2%

SMILES: O=C(Cc1ccccc1)Nc1nc2ccc(Cl)cc2c2nc(-c3ccco3)nn12
- inhibition [1]: 15.2%
- inhibition [2]: 17.8%

SMILES: COc1ccc(S(=O)(=O)c2cc(OC)ccc2S(=O)(=O)c2ccc([C@H](C)NS(C)(=O)=O)cc2)cc1
- inhibition [1]: 6.79%
- inhibition [2]: 11.3%

SMILES: Cc1ccccc1C(=O)Nc1ccc(C(=O)N2CCCC(O)c3cc(Cl)ccc32)c(C)c1 (stereo unspecified)
- inhibition [1]: 11.7%
- inhibition [2]: 53.2%

SMILES: CCCCc1nc(Cl)c(CO)n1Cc1ccc(-c2ccccc2-c2nnn[nH]2)cc1
- inhibition [1]: 16.9%
- inhibition [2]: -1.17%

SMILES: Cc1cc(NC(=O)Nc2ccc(N(C)C)cc2)c2cc(F)cc(F)c2n1
- inhibition [2]: 1.4%

SMILES: O=c1ccn([C@@H]2O[C@H](COP(=O)(O)OP(=O)(O)O)[C@@H](O)[C@H]2O)c(=O)[nH]1
- inhibition [2]: 44%

SMILES: CCc1cc2c(c(CC)n1)CCC(=O)N2Cc1ccc(-c2ccccc2-c2nnn[nH]2)cc1
- inhibition [1]: -4.8%
- inhibition [2]: 51.6%

SMILES: C[C@H](Cc1cc2c(c(C(N)=O)c1)N(CCCO)CC2)NCCOc1ccccc1OCC(F)(F)F
- inhibition [1]: 25.3%
- inhibition [2]: 38.8%

SMILES: COc1cc(-n2cnc3cc(-c4ccc(Cl)cc4)sc3c2=O)ccc1OCCN1CCCC1
- inhibition [1]: 85.3%
- inhibition [2]: 37.9%

SMILES: COc1ccc(OC(F)(F)F)cc1CN[C@H]1CCCN[C@H]1c1ccccc1
- inhibition [1]: 24.8%
- inhibition [2]: 41.3%

SMILES: CCN(CC)CCCCC1CCN(CC(=O)N2c3ccccc3C(=O)Nc3cccnc32)CC1
- inhibition [2]: 10.4%

SMILES: CCCCN1CCC(COC(=O)c2cc(Cl)c(N)c3c2OCCO3)CC1
- inhibition [1]: -0.67%
- inhibition [2]: 9.58%

SMILES: COc1ccc(S(=O)(=O)N2c3ccc(Cl)cc3[C@](O)(c3ccccc3Cl)[C@@H]2C(=O)N2CCC[C@H]2C(N)=O)cc1OC
- inhibition [1]: -7.91%
- inhibition [2]: 38.8%

SMILES: Nc1nc2c(c(N3CCNCC3)n1)CCC1=C2[C@@H]2CCCC[C@@H]2O1
- inhibition [1]: -4.34%
- inhibition [2]: 26.7%

SMILES: C[C@H](NC[C@H](O)CP(=O)(O)CC1CCCCC1)c1ccc(Cl)c(Cl)c1
- inhibition [1]: -8.92%
- inhibition [2]: 60.4%

SMILES: Cc1nc(C(=O)N2CCC[C@H]2Cc2nnc(-c3ccccc3)o2)c(-c2ccccc2F)s1
- inhibition [1]: 12.1%
- inhibition [2]: 7.98%

SMILES: CC(C)C[C@H](NC(=O)N1CCCCCC1)C(=O)N[C@H](Cc1cn(C)c2ccccc12)C(=O)N[C@H](Cc1ccccn1)C(=O)O
- inhibition [2]: 16.7%

SMILES: O=C(c1cc2c(cc1F)OC(c1ccc(F)cc1)(c1ccc(Cl)cc1Cl)O2)N1CCOCC1 (stereo unspecified)
- inhibition [1]: -2.04%
- inhibition [2]: 52.7%

SMILES: c1ccc(N2CCN(Cc3nc4ccccc4[nH]3)CC2)nc1
- inhibition [1]: 11.8%
- inhibition [2]: 4.96%

SMILES: CCCn1c(=O)c2[nH]c(-c3cnn(Cc4cccc(C(F)(F)F)c4)c3)nc2n(CC)c1=O
- inhibition [2]: -6.55%

SMILES: CCOC(=O)c1c(C)[nH]c2ccc3c(c12)CN1CCc2cc(OC)ccc2C1O3 (stereo unspecified)
- inhibition [1]: 31%
- inhibition [2]: 56.5%

SMILES: C[C@H](CO)Nc1nc(SCc2cccc(Cl)c2F)nc2[nH]c(=O)sc12
- inhibition [1]: 7.09%
- inhibition [2]: 10.8%

SMILES: Oc1ccc2c3c1O[C@H]1c4[nH]c5c(c4C[C@@]4(O)[C@@H](C2)N(CC2CC2)CC[C@]314)C[C@@]1(O)[C@H]2Cc3ccc(O)c4c3[C@@]1(CCN2CC1CC1)[C@H]5O4
- inhibition [1]: 8.31%
- inhibition [2]: 80.6%

SMILES: COc1ccccc1CN[C@H]1C2CCN(CC2)[C@H]1C(c1ccccc1)c1ccccc1
- inhibition [1]: 19.7%
- inhibition [2]: 9.53%

SMILES: COc1ccc(Br)cc1S(=O)(=O)NC(=O)/C=C/c1ccccc1Cc1ccc2ccccc2c1
- inhibition [2]: 22.1%

SMILES: CC(C)NCC(O)COc1cccc2ccccc12 (stereo unspecified)
- inhibition [1]: -2.95%
- inhibition [2]: 17.4%

SMILES: NC[C@@H]1O[C@H](C23CC4CC(CC(C4)C2)C3)Cc2c1ccc(O)c2O
- inhibition [1]: 20.1%

SMILES: COc1ccc(NS(=O)(=O)c2sc3ccc(Cl)cc3c2C)cc1N1CCNCC1
- inhibition [1]: 58.1%
- inhibition [2]: 56.3%

SMILES: CCCCCNC(=N)N/N=C/c1c[nH]c2ccc(OC)cc12
- inhibition [1]: 97.6%
- inhibition [2]: 63.9%

SMILES: CCCSc1nc(N[C@@H]2C[C@H]2c2ccc(F)c(F)c2)c2nnn([C@@H]3C[C@H](OCCO)[C@@H](O)[C@H]3O)c2n1
- inhibition [1]: 33.2%
- inhibition [2]: -2.99%

SMILES: C[C@@H](NCCc1ccc(O)cc1)[C@@H](O)c1ccc(O)cc1 (relative stereo)
- inhibition [2]: 51.1%

SMILES: CCCCC#Cc1nc(NC)c2ncn([C@@H]3O[C@H](CO)[C@@H](O)[C@H]3O)c2n1
- inhibition [1]: -6.71%
- inhibition [2]: 2.4%

SMILES: CCc1cc(C(C)=O)c(O)cc1OCCCCCC(C)(C)c1nn[nH]n1
- inhibition [1]: 8.4%
- inhibition [2]: 8.2%

SMILES: CSc1ccc(C(=O)N[C@@H]2CCCC[C@@H]2NC(=O)CNC(=O)c2cc(C(F)(F)F)ccc2NC(=O)NC(C)C)cc1
- inhibition [1]: 5.1%
- inhibition [2]: 28%

SMILES: CCc1ccc(OCc2ccccc2C(=O)Nc2ccc3nc(C)cc(N)c3c2)cc1
- inhibition [1]: 52.3%
- inhibition [2]: 81.7%

SMILES: Cc1csc2c(N[C@@H](C)CN3CCN(S(=O)(=O)c4ccc(Cl)c(Cl)c4)CC3)ncnc12
- inhibition [2]: 14.7%

SMILES: CC[C@@H]1CN2C(=O)N(C)c3nc(-c4ccccc4)[nH]c3C2=N1
- inhibition [1]: 14.4%
- inhibition [2]: -6.84%

SMILES: Nc1nc(NCCc2ccc(O)cc2)nc2nc(-c3ccco3)nn12
- inhibition [2]: 0.03%

SMILES: O=C(Cc1ccc(Cl)c(Cl)c1)N1CCCC[C@H]1CN1CCCC1
- inhibition [2]: 49.6%

SMILES: C=CCN1C[C@H](C)N([C@H](c2ccc(C(=O)N(CC)CC)cc2)c2cccc(O)c2)C[C@H]1C
- inhibition [2]: 98.5%

SMILES: Cc1nc2sccn2c(=O)c1CCN1CCC(=C(c2ccc(F)cc2)c2ccc(F)cc2)CC1
- inhibition [1]: 94%
- inhibition [2]: 63.5%

SMILES: OC1(c2ccc(Cl)cc2)CCN(Cc2c[nH]c3ccccc23)CC1
- inhibition [1]: 37.7%
- inhibition [2]: 65%

SMILES: Cc1cccc([C@H](C)c2c[nH]cn2)c1C
- inhibition [1]: -0.76%

SMILES: O=C(Nc1ccc(Cl)cc1)Nc1cccc(-c2cccc(N3CCCC3)n2)c1
- inhibition [2]: -5.02%

SMILES: C[C@@H](N)Cc1c[nH]cn1
- inhibition [1]: -3.48%

SMILES: CCCCCNC(=O)NS(=O)(=O)c1cc([N+](=O)[O-])ccc1NC1CCCCC1
- inhibition [2]: 26.7%

SMILES: Cc1cccc(NC(=O)N[C@@H]2N=C(c3ccccc3)c3ccccc3N(C)C2=O)c1
- inhibition [2]: 5.79%

SMILES: N=C(N)SCCc1c[nH]cn1
- inhibition [1]: -5.14%
- inhibition [2]: -3.13%

SMILES: CC(C)(N)C(=O)N[C@H](COCc1ccccc1)C(=O)N1CCC2(CC1)CN(S(C)(=O)=O)c1ccccc12
- inhibition [2]: 12.8%

SMILES: CC(C)(C)NC[C@H](O)COc1nsnc1N1CCOCC1
- inhibition [2]: -1.47%

SMILES: COc1ccc(/C=C/CCCCOc2ccc(C(=O)c3cccc(C(=O)O)c3)cc2CCC(=O)O)cc1
- inhibition [1]: -8.69%
- inhibition [2]: 22.4%

SMILES: Cc1nc(-c2ccc(-c3ccc(C(=O)N4CCc5cc6c(cc54)C4(CCN(C)CC4)CO6)cc3)c(C)c2)no1
- inhibition [1]: 14%
- inhibition [2]: -2.77%

SMILES: N#Cc1cccc(C(=O)Nc2cc(-c3ccccc3)nn2-c2ccccc2)c1
- inhibition [1]: 1.34%
- inhibition [2]: 6.88%

SMILES: COc1cc2c(CCNC(C)=O)c[nH]c2cc1Cl
- inhibition [2]: -1.77%

SMILES: CN1C2CCC1CC(OC(c1ccc(F)cc1)c1ccc(F)cc1)C2 (stereo unspecified)
- inhibition [1]: 83.1%
- inhibition [2]: 59.1%

SMILES: N#Cc1c(N)nc(SCC(N)=O)c(C#N)c1-c1ccc(OCC2CC2)cc1
- inhibition [1]: 7.71%
- inhibition [2]: -0.63%

SMILES: CCCCN(CC)c1nc(C)nc2c1c(C)cn2-c1c(C)cc(C)cc1C
- inhibition [2]: 20.1%

SMILES: CN1C(=O)[C@@H](NC(=O)c2cc3ccccc3[nH]2)N=C(c2ccccc2)c2ccccc21
- inhibition [1]: -2.34%
- inhibition [2]: 5.76%

SMILES: Cc1cc(C)cc(C(=O)N(C)[C@H](Cc2ccc(-c3ccccc3)cc2)C(=O)N[C@@H](Cc2c[nH]c3ccccc23)C(=O)O)c1
- inhibition [2]: -1.4%

SMILES: Cc1cc(C(=O)N2Cc3cnn(C)c3Nc3ccccc32)ccc1CNC(=O)N1CCC[C@H]1C(=S)N1CCCN(C)CC1
- inhibition [1]: 35%
- inhibition [2]: 12.3%
